Test results as given in patent US10995359B2, “Method for determining drug-sensitive human cell lines by analysis method in which measurement of activity of two types of protein kinase is used” (NITTO BOSEKI CO., LTD., priority 2015, dated 2021).
Read-outs that look alike come from different tables or passages of the source.

Tests used:
HCC1937 (BL1) cells = experiment: Drug sensitivity assay (cell growth test), sulforhodamine B; format: cell-based; conditions: Homo sapiens, 72 hours; for inhibition at 0.1 µM: HCC1937, 100 nM, index 12.5% growth inhibition rate; for inhibition at 1 µM: HCC1937, 1 μM, index 25% growth inhibition rate; for inhibition at 10 µM: HCC1937, 10 μM, index 50% growth inhibition rate
Description: (§1) Cultured cells were treated with a MEK inhibitor and a PI3K inhibitor in various concentrations, and cell lines sensitive to MEK and PI3K were classified by calculating a cell growth inhibition rate. The culture method and analysis method are as follows.
(§2) Thirteen types of cells used in the present study, HCC38 (BL1), MDA-MB-231 (MSL), DU4475 (IM), HCC1187 (IM), HCC1143 (BL1), HCC1395 (LAR), HCC1937 (BL1), MDA-MB-453 (LAR), HCC70 (BL2), HS578T (MSL), MDA-MB-157 (MSL) and MDA-MB-468 (BL1), were obtained from American type culture collection (ATCC), and SUM185PE (LAR) was obtained from ASTERAND BIOSCIENCE. All the cells belong to triple negative breast cancer (TNBC), and it is known which of six types (BL1, BL2, M, MSL, IM and LAR) these belong to by an existing classification method.
(§3) All the cells were cultured in a medium designated from a source of supply, and 2 mM L-glutamine and 10% fetal bovine serum (FBS) were supplemented.
(§4) Each type of cells was seeded in a 96 well titer plate at 1×10^4 cells/well, and trametinib, an MEK inhibitor (Medchem Express; 0.08, 0.16, 0.31, 0.63, 1.25, 2.5, 5, 10 and 20 μM), and wortmannin, a PI3K inhibitor (Wako Pure Chemical Industries, Ltd.; 0.08, 0.16, 0.31, 0.63, 1.25, 2.5, 5, 10 and 20 μM) were dissolved in Dimethyl Sulfoxide [DMSO] (Wako Pure Chemical Industries, Ltd.) in various concentrations and treated. In addition, the effect on cell growth was examined at 72 hours after the inhibitor by sulforhodamine B assay (manufactured by SIGMA-ALDRICH), and 50 μL of sulforhodamine B solution was added to each well and cells were left at room temperature for an hour for staining. The staining degree of metabolically survival cells was examined by monitoring absorbance at a wavelength of 565 nm using a microtiter plate. The absorbance of cells which were not treated with trametinib and wortmannin (treated with DMSO) was used as a control and defined as 100% to calculate a cell growth inhibition rate.
(§5) The cell lines were classified into 4 types, cell lines sensitive to wortmannin (hereinafter, PA), cell lines sensitive to trametinib (hereinafter, MA), cell lines resistant to wortmannin and trametinib (hereinafter, R), and others (hereinafter, S). In the classification, first the inhibition rate of each drug was calculated in a concentration of 1 μM, and the inhibition rate (%) by trametinib and the inhibition rate (%) by wortmannin were plotted on the X axis and Y axis respectively on a graph.
as §5, with “100 nM,” for “1 μM,”
as §5, with “10” for “1”, “graph. Using a 50% growth inhibition rate as an index of the inhibitive effect of a drug, cells were classified into 4 types by grid analysis.” for “graph.”

MDA-MB-453 (LAR) cells = experiment: as above; format: cell-based; conditions: Homo sapiens, 72 hours; for inhibition at 0.1 µM: MDA-MB-453, 100 nM, index 12.5% growth inhibition rate; for inhibition at 1 µM: MDA-MB-453, 1 μM, index 25% growth inhibition rate; for inhibition at 10 µM: MDA-MB-453, 10 μM, index 50% growth inhibition rate
Description: as §1, §2, §3, §4, §5
as §5, with “100 nM,” for “1 μM,”
as §5, with “10” for “1”, “graph. Using a 50% growth inhibition rate as an index of the inhibitive effect of a drug, cells were classified into 4 types by grid analysis.” for “graph.”

HCC1187 (IM) cells = experiment: as above; format: cell-based; conditions: Homo sapiens, 72 hours; for inhibition at 0.1 µM: HCC1187, 100 nM, index 12.5% growth inhibition rate; for inhibition at 1 µM: HCC1187, 1 μM, index 25% growth inhibition rate; for inhibition at 10 µM: HCC1187, 10 μM, index 50% growth inhibition rate
Description: as §1, §2, §3, §4, §5
as §5, with “100 nM,” for “1 μM,”
as §5, with “10” for “1”, “graph. Using a 50% growth inhibition rate as an index of the inhibitive effect of a drug, cells were classified into 4 types by grid analysis.” for “graph.”

HCC1395 (LAR) cells = experiment: as above; format: cell-based; conditions: Homo sapiens, 72 hours; for inhibition at 0.1 µM: HCC1395, 100 nM, index 12.5% growth inhibition rate; for inhibition at 1 µM: HCC1395, 1 μM, index 25% growth inhibition rate; for inhibition at 10 µM: HCC1395, 10 μM, index 50% growth inhibition rate
Description: as §1, §2, §3, §4, §5
as §5, with “100 nM,” for “1 μM,”
as §5, with “10” for “1”, “graph. Using a 50% growth inhibition rate as an index of the inhibitive effect of a drug, cells were classified into 4 types by grid analysis.” for “graph.”

HCC70 derived tumor = experiment: Test of suppressing tumor growth by drug administration using tumor-bearing mice; format: in vivo, nude mice; conditions: 0.3 mg/kg orally once-daily for 14 days
Description: (§6) A cultured triple negative breast cancer cell line was injected under the skin of nude mice to create cancer-bearing mice, and a tumor tissue was established and a PI3K inhibitor and an MEK inhibitor were then administered. Tumor volumes were measured to observe an anti-tumor effect. The method for preparing a tumor-bearing mice and the administration route are as follows.
(§7) The cell lines of MDA-MB-231, HCC70 and SUM185PE were cultured by the above-described method, and after release with trypsin, the cells was suspended with Matrigel basement membrane matrix (manufactured by Corning Incorporated) to about 7×10^6 cells/mL to prepare a cell suspension. Using a 27 gauge syringe, 0.1 mL of cell suspension was injected under the skin of 5-week old female nude mice (manufactured by CLEA Japan, Inc.) to prepare tumor-bearing mice.
(§8) Trametinib, an MEK inhibitor, and wortmannin, a PI3K inhibitor, were each dissolved in PBS with 1% dimethylsulfoxide (DMSO) to 0.3 mg/kg to obtain a drug solution. In addition, PBS with 1% DMSO was used as a control.
(§9) Individuals whose tumor volume reached 300 mm^3 were randomly divided into 3 groups and administration was initiated. As an administration route, a drug solution was orally administered once-daily for 14 days and the tumor volume was observed. The tumor volume was calculated by major axis×(minor axis)^2/2.
(§10) FIGS. 33 to 35 show the results of the test of suppressing tumor growth by each inhibitor using the number of individuals N=6 in each group (Control group, Trametinib-administered group and Wortmannin-administered group) (FIG. 33: MDA-MB-231 derived tumor-bearing mice, FIG. 34: HCC70 derived tumor-bearing mice, and FIG. 35: SUM185PE derived tumor-bearing mice). […] Mann-Whitney U test was used as the test method.

MDA-MB-231 derived tumor = experiment: as above; format: in vivo, nude mice; conditions: MDA-MB-231 derived tumor-bearing mice; 0.3 mg/kg orally once-daily for 14 days
Description: as §6, §7, §8, §9, §10

SUM185PE derived tumor = experiment: as above; format: in vivo, nude mice; conditions: 0.3 mg/kg orally once-daily for 14 days
Description: as §6, §7, §8, §9, §10

[1] = read-out: inhibition rate (%) by trametinib, classification by grid analysis
[2] = read-out: inhibition rate (%) by wortmannin, classification by grid analysis

What does the source list for `CC(=O)Nc1cccc(-n2c(=O)n(C3CC3)c(=O)c3c(Nc4ccc(I)cc4F)n(C)c(=O)c(C)c32)c1` [trametinib]?
inhibition at 0.1 µM (HCC1937 (BL1) cells; [1]): < 12.5%; inhibition at 1 µM (HCC1937 (BL1) cells; [1]): < 25%; inhibition at 10 µM (HCC1937 (BL1) cells; [1]): < 50%; inhibition at 0.1 µM (MDA-MB-453 (LAR) cells; [1]): > 12.5%; inhibition at 1 µM (MDA-MB-453 (LAR) cells; [1]): > 25%; inhibition at 10 µM (MDA-MB-453 (LAR) cells; [1]): > 50%; inhibition at 0.1 µM (HCC1187 (IM) cells; [1]): > 12.5%; inhibition at 1 µM (HCC1187 (IM) cells; [1]): > 25%; inhibition at 10 µM (HCC1187 (IM) cells; [1]): > 50%; inhibition at 0.1 µM (HCC1395 (LAR) cells; [1]): < 12.5%; inhibition at 1 µM (HCC1395 (LAR) cells; [1]): < 25%; inhibition at 10 µM (HCC1395 (LAR) cells; [1]): < 50%; suppression of tumor growth (in words) (HCC70 derived tumor): a significant growth suppressive effect was observed; suppression of tumor growth (in words) (MDA-MB-231 derived tumor): significantly suppressed; suppression of tumor growth (in words) (SUM185PE derived tumor): a significant growth suppressive effect was not obtained

Which inhibition at 0.1 µM (HCC1937 (BL1) cells; [2]) does the source give for `COC[C@H]1OC(=O)c2coc3c2[C@@]1(C)C1=C(C3=O)[C@@H]2CCC(=O)[C@@]2(C)C[C@H]1OC(C)=O` [wortmannin, Wortmannin] here?
Its inhibition at 0.1 µM is less than 12.5%.

And the inhibition at 1 µM (HCC1937 (BL1) cells; [2])?
Its inhibition at 1 µM is less than 25%.

What about the inhibition at 10 µM (HCC1937 (BL1) cells; [2]) of the same molecule?
The inhibition at 10 µM was less than 50%.

What about the inhibition at 0.1 µM (MDA-MB-453 (LAR) cells; [2]) of the same molecule?
Its inhibition at 0.1 µM is greater than 12.5%.

And the inhibition at 1 µM (MDA-MB-453 (LAR) cells; [2])?
The inhibition at 1 µM was greater than 25%.

And the inhibition at 10 µM (MDA-MB-453 (LAR) cells; [2])?
The inhibition at 10 µM was greater than 50%.

And the inhibition at 0.1 µM (HCC1187 (IM) cells; [2])?
The inhibition at 0.1 µM was less than 12.5%.

What about the inhibition at 1 µM (HCC1187 (IM) cells; [2]) of the same molecule?
The inhibition at 1 µM was less than 25%.

What about the inhibition at 10 µM (HCC1187 (IM) cells; [2]) of the same molecule?
Its inhibition at 10 µM is less than 50%.

What about the inhibition at 0.1 µM (HCC1395 (LAR) cells; [2]) of the same molecule?
The inhibition at 0.1 µM was less than 12.5%.

And the inhibition at 1 µM (HCC1395 (LAR) cells; [2])?
The inhibition at 1 µM was less than 25%.

What about the inhibition at 10 µM (HCC1395 (LAR) cells; [2]) of the same molecule?
Its inhibition at 10 µM is less than 50%.

And the “suppression of tumor growth (in words)” value (HCC70 derived tumor)?
Its value is “a significant growth suppressive effect was observed”.

What about the “suppression of tumor growth (in words)” value (MDA-MB-231 derived tumor) of the same molecule?
The value was “a significant suppressive effect was not obtained”.

And the “suppression of tumor growth (in words)” value (SUM185PE derived tumor)?
Its value is “significantly suppressed”.
